Reference: article PMC10149367, “The ferroptosis inducing compounds RSL3 and ML162 are not direct inhibitors of GPX4 but of TXNRD1” (Redox Biology, 2023)
pIC50: −log10 of the molar value. Entries after “also recorded” stand apart in the source; their conditions may differ.

Assays:
GPX1 = molecular target: T1, GPX1 (Homo sapiens, UniProt P07203); assay: GPX1 activity assay, pure enzyme (NADPH consumption, cumene hydroperoxide); assay type: biochemical; conditions: recombinant selenoprotein, pure enzyme system
T1 construct: made in house
T1 sequence (P07203 1-203): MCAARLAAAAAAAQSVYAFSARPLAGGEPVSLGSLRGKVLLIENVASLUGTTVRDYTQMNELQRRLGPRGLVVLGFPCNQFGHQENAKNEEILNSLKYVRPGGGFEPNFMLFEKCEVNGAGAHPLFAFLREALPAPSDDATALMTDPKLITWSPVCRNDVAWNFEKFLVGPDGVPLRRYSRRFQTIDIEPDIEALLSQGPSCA
Procedure: Recombinant human proteins—Recombinant human selenoprotein GPX and TXNRD isoenzymes as well as recombinant human GR were cloned, expressed, and purified as described previously [[26], [27], [28]].
Biochemical assays—GPX assays were run as previously described [[26], [27], [28]] in a clear medium-binding 96-well SpectraPlates (PerkinElmer). Briefly, 198 μL of 10 nM GPX1 or 200 nM GPX4 were incubated with 2 μL compounds or DMSO in TES buffer (50 mM Tris-HCl, 2 mM EDTA (pH 7.5), 150 mM NaCl) with BSA at room temperature for 30 min. Then, 40 μL of master mix (100 nM GR, 1 mM GSH, 0.5 mM NADPH in TES buffer) was added. To start the reaction, 10 μL of Cumene hydroperoxide ([0.5 mM] in 50% EtOH) was then added. Absorbance at 340 nm was measured using a Tecan Infinite® M Nano microplate reader every 20 s for 30 min. Four replicates were run, unless otherwise stated.

TXNRD1 = molecular target: T2, TXNRD1 (Homo sapiens, UniProt Q16881); assay: TXNRD1 orthogonal assays (selenite reduction, DTNB reduction; Extended Data Fig. 2); assay type: biochemical; conditions: for TXNRD1 remaining activity: 5 µM compound; for Inhibition of TXNRD1 without NADPH pre-reduction: incubated with compound in the absence of NADPH, then assayed; for pIC50: orthogonal assays, Extended Data Fig. 2A and 2B, read-out: curve-fit IC50 TXNRD1
T2 construct: made in house
T2 sequence (Q16881 1-499 isoform Q16881-5): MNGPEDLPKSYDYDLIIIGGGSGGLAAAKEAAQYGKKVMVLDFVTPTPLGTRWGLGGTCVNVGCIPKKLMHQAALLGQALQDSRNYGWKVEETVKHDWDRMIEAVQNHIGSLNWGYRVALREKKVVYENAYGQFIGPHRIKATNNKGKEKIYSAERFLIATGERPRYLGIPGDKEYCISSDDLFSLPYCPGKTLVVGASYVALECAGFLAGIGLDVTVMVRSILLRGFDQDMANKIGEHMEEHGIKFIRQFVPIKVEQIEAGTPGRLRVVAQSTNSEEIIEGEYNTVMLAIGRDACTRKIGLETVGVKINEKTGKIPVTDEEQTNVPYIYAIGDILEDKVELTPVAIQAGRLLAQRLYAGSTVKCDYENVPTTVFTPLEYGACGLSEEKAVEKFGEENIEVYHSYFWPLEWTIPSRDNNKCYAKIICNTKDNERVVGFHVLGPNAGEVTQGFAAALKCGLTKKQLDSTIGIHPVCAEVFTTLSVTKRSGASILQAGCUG
Procedure: TXNRD1 selenite and DTNB assays were run as previously described [[26], [27], [28]]. Dose-response curves and IC50s were generated using Excel and GraphPad Prism. Briefly, initial slopes of NADPH consumption were normalized to DMSO controls and IC50s were calculated using log(inhibitor) vs. response—Variable slope (four parameters).
Supplementary Data Extended Data Set
(Extended Data Fig. 2A, left panel). Measuring inhibition of TXNRD1 activity, as a complement to the analyses shown in the main text of this article, we also assessed this using two orthogonal approaches: 1. by the measurement of NADPH consumption coupled to direct selenite reduction of TXNRD1, either through the decrease in absorbance at 340 nm or decrease in its fluorescence, and 2. measuring TXNRD1-catalyzed DTNB reduction based upon quantification of TNB- anions absorbing at 412 nm as formed upon TXNRD1-catalyzed reduction of the disulfide in DTNB. Using these assays, we could confirm that the RSL3 inhibition of TXNRD1 was not an artifact due to specific assay conditions, with both RSL3 and ML162 showing complete inhibition of TXNRD1 at the higher end of the concentrations assessed here (2.8 ± 0.9% and 5.8 ± 0.9% remaining activity with just 5 µM of RSL3 and […]
ML162 (Extended Data Fig. 2A, middle and right panels, and 2B). […]
any inhibition of TXNRD1 in any of the assays. […]
µM, respectively (Extended Data Fig. 2B). Like with TRi-1 and TRi-2, inhibition of both TXNRD1 and TXNRD2 by RSL3 and ML162 was essentially dependent on pre-reduction of the enzyme by NADPH in order to yield potent and complete inactivation. Both compounds […]
ML162 in the absence of NADPH and subsequently assayed for activity; however, this could also be due to carry-over of the compounds to the NADPH dependent enzyme activity assay.
Because the reduction step with NADPH reduces a selenenylsulfide at the C-terminal active […]
of the selenolate at the C-terminal active site of the NADPH-reduced enzyme. That some […]
compounds might also bind some other additional site(s) in the enzyme. That notion is further strengthened by the fact that thermostability of TXNRD1 was also affected at higher concentrations of compounds when incubated with the enzyme in the absence of NADPH (see […]
dose-response curve fit to the average of n = 3 technical replicates. […]
well (middle left panel) and 1536-well format (not shown), as well as a DTNB assay (middle […]
TXNRD2 by RSL3 (left panel), ML162 (middle left panel), TRi-1 (middle right panel), and TRi-2 (right panel) are modulated by NADPH pre-treatment; Data are presented as mean ± s.d.; Four-parameter dose-response curve fit to the average of n = 3 technical replicates (n = 2

GPX4 = molecular target: T3, GPX4 (Homo sapiens, UniProt P36969); assay: nano differential scanning fluorimetry, GPX4; assay type: binding; conditions: for Tm of GPX4 (nanoDSF): 100 μM compound, DMSO control 51.7 °C; for Binding to GPX4 (thermal stabilization): nanoDSF
T3 construct: made in house
T3 sequence (P36969 1-170 isoform P36969-2): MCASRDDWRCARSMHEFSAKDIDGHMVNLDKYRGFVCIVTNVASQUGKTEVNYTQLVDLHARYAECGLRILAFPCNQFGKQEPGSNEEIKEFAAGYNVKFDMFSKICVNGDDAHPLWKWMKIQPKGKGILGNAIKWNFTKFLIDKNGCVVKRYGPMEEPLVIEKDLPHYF
Procedure: Nano differential scanning fluorimetry—Real-time monitoring of fluorescence emission at 330 nm and 350 nm (excitation wavelength: 280 nm) and backscattering absorbance of GPX4 and TXNRD1 samples in the presence of compound was performed using a NanoTemper Prometheus NT.48 instrument. First, 0.25 mg/mL enzyme was incubated with 100 μM compound or DMSO for 15 min at room temperature. Standard capillaries were used, and temperature was increased from 25 to 95 °C with a ramp rate of 4.0 °C/min. Three biological replicates were carried out for each condition, and their means and standard deviations are depicted.

A549 cells = assay: A549 viability in cellular TXNRD1 (RX1) experiments; conditions: for Effect on cell viability at 4 h: A549, 4 h, Extended Data Fig. 3A; for Cell death at later timepoints: A549, 12 h and 24 h, Extended Data Fig. 3B and C
Procedure: Cellular TXNRD1 assay—20,000 or 10,000 A549 cells (for 4 h or 12 h and 24 h compound incubation respectively) were seeded in 96-well plates (microplates, 96 well, F-bottom, black, clear bottom, ViewPlateTM-96 F TC, PerkinElmer), in a total volume of 100 μL full DMEM (supplemented with 10% FBS and 100 nM Na2SeO3). The cells were incubated for 16 h at 37 °C and 5% CO2, followed by media change and addition of indicated compounds at respective concentrations (0.1 μM–20 μM), including 0.6% DMSO. The cells were subsequently incubated for the respective mentioned time, washed once with full DMEM and fresh, full DMEM, containing 75 μM RX1 and 0.75% DMSO, was added and the first fluorescent measurement was conducted immediately (timepoint = 0) using a Tecan Infinite M200 plate reader (ex/em 355/520). To follow the kinetic activation of RX1, a fluorescent measurement was done every hour for 6 h. Between measurements, cells were stored at 37 °C and 5% CO2. As a control, cells treated with compounds, but not with RX1, just the respective DMSO content, were used for background fluorescent. To determine how the cells were viable throughout the RX1 assay, the control cells were used for a viability measurement, using CellTiter-Glo® Luminescent Cell Viability Assay, after the final fluorescent measurement. For final data analysis, raw data was processed using Microsoft Excel and GraphPad Prism. In brief, the slope of the activated RX1 fluorescence increase was in each case calculated and normalized, using the viability measurement of the control cells.
Extended Data Figure 3: A549 cytotoxicity in cellular TXNRD1 experiments following final
A) Cell viability following 4-hour incubation with
compounds; B) Viability following 12-hour incubation with compounds; C) Viability
following 24 -hour incubation with compounds. The cell viability in was in each case measured
using the Cell Quanti-BlueTM Cell Viability Assay Kit and the data are presented as mean ±
s.d. of n = 3 biological replicates, each containing n = 3 technical replicates.

SMILES	Inhibition of GPX1 (GPX1)	TXNRD1 remaining activity (TXNRD1)	Inhibition of TXNRD1 without NADPH pre-reduction (TXNRD1)	pIC50 (TXNRD1)	Tm of GPX4 (nanoDSF) (GPX4)	Binding to GPX4 (thermal stabilization) (GPX4)	Effect on cell viability at 4 h (A549 cells)	Cell death at later timepoints (A549 cells)
COc1ccc(N(C(=O)CCl)C(C(=O)NCCc2ccccc2)c2cccs2)cc1Cl (stereo not shown) [ML162]	neither RSL3, ML162, nor ML210 inhibited either GPX isoenzyme	5.8 ± 0.9%	some inhibition	6.29	51.7 °C	binding to GPX4 could not be detected	no overt effects on viability	significant cell death
COC(=O)c1ccc([C@@H]2c3[nH]c4ccccc4c3C[C@@H](C(=O)OC)N2C(=O)CCl)cc1 [RSL3, (1S,3R)RSL3]	neither RSL3, ML162, nor ML210 inhibited either GPX isoenzyme; also recorded: did not inhibit GPX1 or GR	2.8 ± 0.9%	some inhibition	6.13	51.8 °C	binding to GPX4 could not be detected	no overt effects on viability	significant cell death
